For test [1], the system named is HIV-1 RF virus in CEM-SS cells. In words: HIV-1 cell protection assay (XTT dye reduction). In kind it is cell-based. The method, then: Six days later, 50 μl of XTT solution (1 mg/ml XTT tetrazolium and 20 nM phenazine methosulfate) were added to the wells and the plates were reincubated for four hours. Viability, as determined by the amount of XTT formazan produced, was quantified spectrophotometrically by absorbance at 450 nm.
Data from CPE assays were expressed as the percent of formazan produced in compound-treated cells compared to formazan produced in wells of uninfected, compound-free cells. […] The 50% cytotoxicity concentration (CC50) was calculated as the concentration of compound that decreased the percentage of formazan produced in uninfected, compound-treated cells to 50% of that produced in uninfected, compound-free cells. The therapeutic index was calculated by dividing the cytotoxicity (CC50) by the antiviral activity (EC50).

For test [2], the target named is T1, Full-length wild type HIV-1 integrase (SF1) (Human immunodeficiency virus type 1 group M subtype B, UniProt P04585).
T1 construct: made in house; host or cells: E. coli BL21 (DE3)
In words: Integrase strand-transfer scintillation proximity assay. Format: biochemical. From the text:
The annealed product represents preprocessed viral ds-DNA derived from the LTR U5 sequence of the viral genome. A ds-DNA control to test for non-specific interactions was made using a 3′ di-deoxy derivative of oligonucleotide #1 annealed to oligonucleotide #2. The CA overhang at the 5′ end of the non-biotinylated strand of the ds-DNA was created artificially by using a complimentary DNA oligonucleotide shortened by 2 base pairs. This configuration eliminates the requisite 3′ processing step of the integrase enzyme prior to the strand-transfer mechanism.
The annealed product had overhanging 3′ ends of poly(dA). […] The radiolabeled product was purified using a NENSORB cartridge and stored in stabilized aqueous solution (PerkinElmer).
Reagents: Streptavidin-coated polyvinyltoluene (PVT) SPA beads were purchased from Amersham Biosciences (Piscataway, N.J.). Cesium chloride was purchased from Shelton Scientific, Inc. (Shelton, Conn.). White, polystyrene, flat-bottom, non-binding surface, 96-well plates were purchased from Corning. All other buffer components were purchased from Sigma (St. Louis, Mo.) unless otherwise indicated.
Enzyme Construction: Full-length wild type HIV-1 integrase (SF1) sequence (amino acids 1-289) was constructed in a pET24a vector (Novagen, Madison, Wis.).
Enzyme Purification: Full length wild-type HIV Integrase was expressed in E. coli BL21 (DE3) cells and induced with 1 mM isopropyl-1 thio-β-D-galactopyranoside (IPTG) when cells reached an optical density between 0.8-1.0 at 600 nm. Cells were lysed by microfluidation in 50 mM HEPES pH 7.0, 75 mM NaCl, 5 mM DTT, 1 mM 4-(2-Aminoethyl)benzenesulfonylfluoride HCl (AEBSF). Lysate was then centrifuged 20 minutes at 11 k rpm in GSA rotor in Sorvall RC-5B at 4° C. Supernant was discarded and pellet resuspended in 50 mM HEPES pH 7.0, 750 mM NaCl, 5 mM DTT, 1 mM AEBSF and homogenized in a 40 mL Dounce homogenizer for 20 minutes on ice. Homogenate was then centrifuged 20 minutes at 11 k rpm in SS34 rotor in Sorvall RC-5B at 4° C. Supernant was discarded and pellet resuspended in 50 mM HEPES pH 7.0, 750 mM NaCl, 25 mM CHAPS, 5 mM DTT, 1 mM AEBSF. Preparation was then centrifuged 20 minutes at 11 k rpm in SS34 rotor in Sorvall RC-5B at 4° C.
Supernant was then diluted 1:1 with 50 mM HEPES pH 7.0, 25 mM CHAPS, 1 mM DTT, 1 mM AEBSF and loaded onto a Q-Sepharose column pre-equilibrated with 50 mM HEPES, pH 7.0, 375 mM NaCl, 25 mM CHAPS, 1 mM DTT, 1 mM AEBSF. The flow through peak was collected and NaCl diluted to 0.1 M with 50 mM HEPES pH 7.0, 25 mM CHAPS, 1 mM DTT, 0.5 mM AEBSF and loaded onto a SP-Sepharose column pre-equilibrated with 50 mM HEPES pH 7.0, 100 mM NaCl, 25 mM CHAPS, 1 mM DTT, 0.5 mM AEBSF. After washing the column with the equilibration buffer, a 100 to 400 mM NaCl gradient was run. The eluted integrase was concentrated and run on a S-300 gel diffusion column using 50 mM HEPES pH 7.0, 500 mM NaCl, 25 mM CHAPS, 1 mM DTT, 0.5 mM AEBSF. […] All columns were run in a 4° C. cold room.
Viral DNA Bead Preparation: Streptavidin-coated SPA beads were suspended to 20 mg/mL in 25 mM 3-morpholinopropanesulfonic acid (MOPS) (pH 7.2) and 1.0% NaN3. Biotinylated viral DNA was bound to the hydrated SPA beads in a batch process by combining […] of ds-DNA to 1 mg of suspended SPA beads (10 μL of 50 μM viral DNA to 1 mL of 20 mg/mL SPA beads). The mixture was incubated at 22° C. for a minimum of 20 min. with occasional mixing followed by centrifugation at 2500 rpm for 10 min.

Where [3] appears, read: strand-transfer SPA, 246 nM integrase, 50 nM host DNA, 37° C., 50 min, read-out: IC50.
The mark [4] stands for this setting: Human immunodeficiency virus 1, 144 h, RF strain of HIV-1, CEM-SS cells, XTT read-out after six days, read-out: EC50.
Where [5] appears, read: Human immunodeficiency virus 1, CEM-SS, 144 h.

Read-outs that look alike come from different tables or passages of the source.

With “3-(4-fluorobenzyl)-7-hydroxy-1-[(2-propoxyethoxy)methyl]-3,7-dihydro-6H-pyrrolo[23-c]-17-naphthyridin-6-one [Example 89]”, the EC50 in test [1] (RF strain of HIV-1, CEM-SS cells, XTT read-out after six days, read-out: EC50) worked out at 1 nM. In test [2] (setting [3]), the IC50 was 10 nM.

For the compound `O=C1c2ncc3c(c(COCC(O)CO)cn3Cc3ccc(F)cc3)c2CCN1O` (stereo in doubt) [Example 24, 1-({[(2S)-2,3-dihydroxypropyl]oxy}methyl)-3-(4-fluorobenzyl)-7-hydroxy-3,7,8,9-tetrahydro-6H-pyrrolo[2 3-c]-1,7-naphthyridin-6-one], the EC50 in test [1] (setting [4]) was 4 nM. Also, in test [2] (setting [3]), the IC50 was determined as 14 nM.

For `CCCCC1Cc2c(ncc3c2ccn3Cc2ccc(F)cc2)C(=O)N1O` (centres unmarked) [Example 1, 8-butyl-3-(4-fluorobenzyl)-7-hydroxy-3,7,8,9-tetrahydro-6H-pyrrolo[2,3-c]-1,7-naphthyridin-6-one], the concentration for a half-maximal effect (EC50) in test [1] (setting [4]) came out at 460 nM.

With `C[C@H](O)CNCc1cn(Cc2ccc(F)cc2)c2cnc3c(=O)n(O)ccc3c12` [Example 2, 3-(4-fluorobenzyl)-7-hydroxy-1-({[(2S)-2-hydroxypropyl]amino}methyl)-3,7-dihydro-6H-pyrrolo[2,3-c]-1,7-naphthyridin-6-one], in test [1] (setting [4]), the EC50 came out at 60.9 nM.

`CCN(C)Cc1cn(Cc2ccc(F)cc2)c2cnc3c(=O)n(O)ccc3c12` [Example 3, 1-{[ethyl(methyl)amino]methyl}-3-(4-fluorobenzyl)-7-hydroxy-3,7-dihydro-6H-pyrrolo[2,3-c]-1,7-naphthyridin-6-one]: in test [1] (setting [4]), the EC50 stood at 2.5 nM.

Regarding `CC(CN(C)C)NCc1cn(Cc2ccc(F)cc2)c2cnc3c(=O)n(O)ccc3c12` (centres unmarked) [Example 4, 1-({[2-(dimethylamino)-1-methylethyl]amino}methyl)-3-(4-fluorobenzyl)-7-hydroxy-3,7-dihydro-6H-pyrrolo[2,3-c]-1,7-naphthyridin-6-one], the EC50 in test [1] (setting [4]) is 51 nM.

As for `O=c1c2ncc3c(c(CN4CCC(CO)CC4)cn3Cc3ccc(F)cc3)c2ccn1O` [Example 5, 3-(4-fluorobenzyl)-7-hydroxy-1-{[4-(hydroxymethyl)piperidin-1-yl]methyl}-3,7-dihydro-6H-pyrrolo[2,3-c]-1,7-naphthyridin-6-one], the EC50 in test [1] (setting [4]) was 12 nM.

Turning to `O=c1c2ncc3c(c(CN4CCCC4)cn3Cc3ccc(F)cc3)c2ccn1O` [Example 6, 3-(4-fluorobenzyl)-7-hydroxy-1-(pyrrolidin-1-ylmethyl)-3,7-dihydro-6H-pyrrolo[2,3-c]-1,7-naphthyridin-6-one], the EC50 in test [1] (setting [4]) came out at 5.3 nM.

Take `CN(C)C(=O)c1cccc(-c2cn(Cc3ccc(F)cc3)c3cnc4c(=O)n(O)ccc4c23)c1` [Example 8, 3-[3-(4-fluorobenzyl)-7-hydroxy-6-oxo-6,7-dihydro-3H-pyrrolo[2,3-c]-1,7-naphthyridin-1-yl]-N,N-dimethylbenzamide]: in test [1] (setting [4]), the EC50 worked out at 5 nM. Also, in test [2] (setting [3]), the IC50 worked out at 37 nM.

In the case of `O=c1c2ncc3c(c(-c4ccccn4)cn3Cc3ccc(F)cc3)c2ccn1O` [Example 9, 3-(4-fluorobenzyl)-7-hydroxy-1-pyridin-2-yl-3,7-dihydro-6H-pyrrolo[2,3-c]-1,7-naphthyridin-6-one], in test [1] (setting [4]), the 50% effective concentration (EC50) is 2 nM. For the same compound, the IC50 in test [2] (setting [3]) amounted to 29 nM.

`O=C1c2ncc3c(ccn3Cc3ccc(F)cc3)c2C=CCN1O` [Example 10, 3-(4-fluorobenzyl)-7-hydroxy-7,8-dihydropyrrolo[3′,2′:4,5]pyrido[2,3-c]azepin-6(3H)-one]: in test [1] (setting [4]), the EC50 was 0.59 nM. The compound further came in with a concentration for half-maximal inhibition (IC50) in test [2] of 17 nM.

In test [1] (setting [5]), `CN(C)Cc1cn(Cc2ccc(F)cc2)c2cnc3c(c12)CCN(O)C3=O` [Example 12, 1-[(dimethylamino)methyl]-3-(4-fluorobenzyl)-7-hydroxy-3,7,8,9-tetrahydro-6H-pyrrolo[2,3-c]-1,7-naphthyridin-6-one] registered an EC50 of 13 nM.

As to `O=C1c2ncc3c(c(S(=O)(=O)N4CCCC4)cn3Cc3ccc(F)cc3)c2CCN1O` [Example 13, 3-(4-fluorobenzyl)-7-hydroxyl(pyrrolidin-1-ylsulfonyl)-3,7,8,9-tetrahydro-6H-pyrrolo[2 3-c]-1,7-naphthyridin-6-one], in test [1] (setting [5]), the response was half-maximal at 3 nM (EC50).

Consider `O=C1c2ncc3c(c(C(=O)N4CCCC4)cn3Cc3ccc(F)cc3)c2CCN1O` [Example 14, 3-(4-fluorobenzyl)-7-hydroxy-1-(pyrrolidin-1-ylcarbonyl)-3,7,8,9-tetrahydro-6H-pyrrolo[2,3-c]-1,7-naphthyridin-6-one], for which the EC50 in test [1] (setting [5]) turned out to be 7 nM. Besides, in test [2] (setting [3]), the IC50 is 16 nM.

In test [1] (setting [5]), `COC1CCN(C(=O)c2cn(Cc3ccc(F)cc3)c3cnc4c(c23)CCN(O)C4=O)CC1` [Example 15, 3-(4-fluorobenzyl)-7-hydroxy-1-[(4-methoxypiperidin-1-yl)carbonyl]-3,7,8,9-tetrahydro-6H-pyrrolo[2,3-c]-1,7-naphthyridin-6-one] had an EC50 of 28 nM. For the same compound, the IC50 in test [2] (setting [3]) was found to be 14 nM.

In the case of `CN1CCN(C(=O)c2cn(Cc3ccc(F)cc3)c3cnc4c(c23)CCN(O)C4=O)CC1` [Example 17, 3-(4-fluorobenzyl)-7-hydroxy-1-[(4-methylpiperazin-1-yl)carbonyl]-3,7,8,9-tetrahydro-6H-pyrrolo[2,3-c]-1,7-naphthyridin-6-one], the EC50 in test [1] (setting [5]) came to 150 nM. Also, the IC50 in test [2] (setting [3]) was 17 nM.

Compound `O=C1c2ncc3c(c(CN4CCC(F)(F)C4)cn3Cc3ccc(F)cc3)c2CCN1O` [Example 37, 1-[(3,3-difluoropyrrolidin-1-yl)methyl]-3-(4-fluorobenzyl)-7-hydroxy-3,7,8,9-tetrahydro-6H-pyrrolo[2,3-c]-1,7-naphthyridin-6-one] yielded an EC50 in test [1] (setting [5]) of 1.5 nM.

In test [1] (setting [5]), `O=C1c2ncc3c(c(CN4CCCCC4)cn3Cc3ccc(F)cc3)c2CCN1O` [Example 38, 3-(4-fluorobenzyl)-7-hydroxy-1-(piperidin-1-ylmethyl)-3,7,8,9-tetrahydro-6H-pyrrolo[2,3-c]-1,7-naphthyridin-6-one] returned an EC50 of 5.4 nM.

With `COCCN(C)Cc1cn(Cc2ccc(F)cc2)c2cnc3c(c12)CCN(O)C3=O` [Example 77, 3-(4-fluorobenzyl)-7-hydroxy-1-{[(2-methoxyethyl)(methyl)amino]methyl}-3,7,8,9-tetrahydro-6H-pyrrolo[2,3-c]-1,7-naphthyridin-6-one], the EC50 in test [1] (setting [5]) came to 2 nM.

On to `O=C1c2ncc3[nH]ccc3c2CCN1O` [Example 83, 7-hydroxy-3,7,8,9-tetrahydro-6H-pyrrolo[2,3-c]-1,7-naphthyridin-6-one], for which, in test [1] (setting [4]), the EC50 amounted to 14 nM.

The compound `N#Cc1cc(F)ccc1Cn1ccc2c3c(ncc21)C(=O)N(O)CC3` [Example 91, 5-fluoro-2-[(7-hydroxy-6-oxo-6,7,8,9-tetrahydro-3H-pyrrolo[2,3-c]-1,7-naphthyridin-3-yl)methyl]benzonitrile] gave an EC50 in test [1] (setting [5]) of 2 nM.

The values above are taken from patent US20070099915A1, “INHIBITORS OF THE HIV INTEGRASE ENZYME” (PFIZER INC., priority 2005, published 2007).
